{"source": "PubChem BioAssay AID330", "about": "(DTP/NCI, 2004)", "test_system": "P388 leukemia ip, CD2F1 mice, survival T/C", "experiment": "NCI In Vivo Anticancer Drug Screen. Data for tumor model P388 Leukemia (intraperitoneal) in CD2F1 (CDF1) mice", "settings": "endpoint: median survival time, higher = longer survival", "in_short": "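Mice carrying the transplanted tumor received test compound or vehicle. Survival was recorded in each group, and the value is the treated-group measurement divided by that of the vehicle-treated control group.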", "note": "“And” between values parts separate entries of the source, which are not always exact repeats. Equal values may be shown once. Toxic doses and inconclusive results are not listed.", "data": [{"molecule": "ClCC[N+]12CC[N+](CCCl)(CC1)C2", "values": [{"measurement": "T/C", "setting": "dose: 6.25 mg/kg/injection, schedule: Q01DX006 (ip), vehicle: water", "result": "120 % of control"}, {"measurement": "T/C", "setting": "dose: 6.25 mg/kg/injection, schedule: Q01DX009 (ip), vehicle: distilled water + Tween-80", "result": "117 % of control"}, {"measurement": "T/C", "setting": "dose: 6.25 mg/kg/injection, schedule: Q01DX009 (ip), vehicle: water", "result": "115 % of control [middle of 4 runs]"}, {"measurement": "T/C", "setting": "dose: 7.5 mg/kg/injection, schedule: Q01DX005 (iv), vehicle: clinical formulation", "result": "105 % of control"}, {"measurement": "T/C", "setting": "dose: 7.5 mg/kg/injection, schedule: Q01DX005 (iv), vehicle: water", "result": "100 % of control and 106 % of control"}, {"measurement": "T/C", "setting": "dose: 12.5 mg/kg/injection, schedule: Q01DX006 (ip), vehicle: water", "result": "101 % of control"}, {"measurement": "T/C", "setting": "dose: 12.5 mg/kg/injection, schedule: Q01DX009 (ip), vehicle: saline", "result": "105 % of control"}, {"measurement": "T/C", "setting": "dose: 12.5 mg/kg/injection, schedule: Q01DX009 (ip), vehicle: water", "result": "100 % of control and 104 % of control and 107 % of control"}, {"measurement": "T/C", "setting": "dose: 15.0 mg/kg/injection, schedule: Q01DX005 (iv), vehicle: clinical formulation", "result": "105 % of control"}, {"measurement": "T/C", "setting": "dose: 15.0 mg/kg/injection, schedule: Q01DX005 (iv), vehicle: water", "result": "99 % of control and 110 % of control"}, {"measurement": "T/C", "setting": "dose: 15.0 mg/kg/injection, schedule: Q01DX009 (ip), vehicle: clinical formulation", "result": "100 % of control"}, {"measurement": "T/C", "setting": "dose: 15.0 mg/kg/injection, schedule: Q01DX009 (ip), vehicle: water", "result": "99 % of control and 116 % of control"}, {"measurement": "T/C", "setting": "dose: 20.0 mg/kg/injection, schedule: Q01DX005 (ip), vehicle: water", "result": "106 % of control"}, {"measurement": "T/C", "setting": "dose: 21.08 mg/kg/injection, schedule: Q01DX009 (ip), vehicle: water", "result": "115 % of control and 103 % of control"}, {"measurement": "T/C", "setting": "dose: 23.71 mg/kg/injection, schedule: Q01DX005 (iv), vehicle: clinical formulation", "result": "105 % of control"}, {"measurement": "T/C", "setting": "dose: 23.71 mg/kg/injection, schedule: Q01DX005 (iv), vehicle: water", "result": "110 % of control and 105 % of control"}, {"measurement": "T/C", "setting": "dose: 25.0 mg/kg/injection, schedule: Q01DX006 (ip), vehicle: water", "result": "113 % of control"}, {"measurement": "T/C", "setting": "dose: 25.0 mg/kg/injection, schedule: Q01DX009 (ip), vehicle: water", "result": "109 % of control and 115 % of control"}, {"measurement": "T/C", "setting": "dose: 30.0 mg/kg/injection, schedule: Q01DX001 (ip), vehicle: water", "result": "113 % of control"}, {"measurement": "T/C", "setting": "dose: 30.0 mg/kg/injection, schedule: Q01DX001 (iv), vehicle: water", "result": "109 % of control"}, {"measurement": "T/C", "setting": "dose: 30.0 mg/kg/injection, schedule: Q01DX005 (ip), vehicle: water", "result": "163 % of control"}, {"measurement": "T/C", "setting": "dose: 30.0 mg/kg/injection, schedule: Q01DX005 (iv), vehicle: clinical formulation", "result": "109 % of control"}, {"measurement": "T/C", "setting": "dose: 30.0 mg/kg/injection, schedule: Q01DX005 (iv), vehicle: water", "result": "113 % of control"}, {"measurement": "T/C", "setting": "dose: 30.0 mg/kg/injection, schedule: Q01DX005 (oral), vehicle: water", "result": "110 % of control"}, {"measurement": "T/C", "setting": "dose: 30.0 mg/kg/injection, schedule: Q01DX009 (ip), vehicle: clinical formulation", "result": "100 % of control"}, {"measurement": "T/C", "setting": "dose: 30.0 mg/kg/injection, schedule: Q01DX009 (ip), vehicle: water", "result": "123 % of control"}, {"measurement": "T/C", "setting": "dose: 30.0 mg/kg/injection, schedule: Q01DX009 (oral), vehicle: water", "result": "120 % of control"}, {"measurement": "T/C", "setting": "dose: 31.61 mg/kg/injection, schedule: Q01DX009 (ip), vehicle: water", "result": "119 % of control"}, {"measurement": "T/C", "setting": "dose: 35.56 mg/kg/injection, schedule: Q01DX005 (iv), vehicle: clinical formulation", "result": "111 % of control"}, {"measurement": "T/C", "setting": "dose: 35.56 mg/kg/injection, schedule: Q01DX005 (iv), vehicle: water", "result": "110 % of control and 106 % of control"}, {"measurement": "T/C", "setting": "dose: 40.0 mg/kg/injection, schedule: Q01DX005 (ip), vehicle: water", "result": "114 % of control"}, {"measurement": "T/C", "setting": "dose: 44.0 mg/kg/injection, schedule: Q01DX009 (ip), vehicle: water", "result": "158 % of control"}, {"measurement": "T/C", "setting": "dose: 47.42 mg/kg/injection, schedule: Q01DX009 (ip), vehicle: water", "result": "160 % of control"}, {"measurement": "T/C", "setting": "dose: 50.0 mg/kg/injection, schedule: Q01DX006 (ip), vehicle: water", "result": "123 % of control"}, {"measurement": "T/C", "setting": "dose: 50.0 mg/kg/injection, schedule: Q01DX009 (ip), vehicle: saline with Tween-80", "result": "100 % of control"}, {"measurement": "T/C", "setting": "dose: 50.0 mg/kg/injection, schedule: Q01DX009 (ip), vehicle: saline", "result": "162 % of control and 180 % of control"}, {"measurement": "T/C", "setting": "dose: 50.0 mg/kg/injection, schedule: Q01DX009 (ip), vehicle: water", "result": "113 % of control and 120 % of control"}, {"measurement": "T/C", "setting": "dose: 50.0 mg/kg/injection, schedule: Q04DX003 (ip), vehicle: distilled water + Tween-80", "result": "124 % of control"}, {"measurement": "T/C", "setting": "dose: 53.34 mg/kg/injection, schedule: Q01DX005 (iv), vehicle: water", "result": "115 % of control and 111 % of control"}, {"measurement": "T/C", "setting": "dose: 60.0 mg/kg/injection, schedule: Q01DX001 (ip), vehicle: water", "result": "115 % of control"}, {"measurement": "T/C", "setting": "dose: 60.0 mg/kg/injection, schedule: Q01DX001 (iv), vehicle: water", "result": "117 % of control"}, {"measurement": "T/C", "setting": "dose: 60.0 mg/kg/injection, schedule: Q01DX001 (oral), vehicle: water", "result": "109 % of control"}, {"measurement": "T/C", "setting": "dose: 60.0 mg/kg/injection, schedule: Q01DX005 (ip), vehicle: water", "result": "154 % of control and 170 % of control"}, {"measurement": "T/C", "setting": "dose: 60.0 mg/kg/injection, schedule: Q01DX005 (iv), vehicle: clinical formulation", "result": "120 % of control"}, {"measurement": "T/C", "setting": "dose: 60.0 mg/kg/injection, schedule: Q01DX005 (oral), vehicle: water", "result": "119 % of control"}, {"measurement": "T/C", "setting": "dose: 60.0 mg/kg/injection, schedule: Q01DX009 (ip), vehicle: water", "result": "155 % of control"}, {"measurement": "T/C", "setting": "dose: 66.0 mg/kg/injection, schedule: Q01DX009 (ip), vehicle: water", "result": "167 % of control"}, {"measurement": "T/C", "setting": "dose: 71.12 mg/kg/injection, schedule: Q01DX009 (ip), vehicle: clinical formulation", "result": "173 % of control"}, {"measurement": "T/C", "setting": "dose: 71.12 mg/kg/injection, schedule: Q01DX009 (ip), vehicle: water", "result": "177 % of control and 165 % of control"}, {"measurement": "T/C", "setting": "dose: 80.0 mg/kg/injection, schedule: Q01DX005 (iv), vehicle: clinical formulation", "result": "122 % of control"}, {"measurement": "T/C", "setting": "dose: 80.0 mg/kg/injection, schedule: Q01DX005 (iv), vehicle: water", "result": "119 % of control and 112 % of control"}, {"measurement": "T/C", "setting": "dose: 100.0 mg/kg/injection, schedule: Q01DX005 (ip), vehicle: water", "result": "155 % of control"}, {"measurement": "T/C", "setting": "dose: 100.0 mg/kg/injection, schedule: Q01DX009 (ip), vehicle: saline with Tween-80", "result": "189 % of control and 198 % of control and 213 % of control"}, {"measurement": "T/C", "setting": "dose: 100.0 mg/kg/injection, schedule: Q01DX009 (ip), vehicle: saline", "result": "153 % of control and 163 % of control and 182 % of control"}, {"measurement": "T/C", "setting": "dose: 100.0 mg/kg/injection, schedule: Q01DX009 (oral), vehicle: saline with Tween-80", "result": "112 % of control"}, {"measurement": "T/C", "setting": "dose: 100.0 mg/kg/injection, schedule: Q04DX003 (ip), vehicle: distilled water + Tween-80", "result": "151 % of control"}, {"measurement": "T/C", "setting": "dose: 100.0 mg/kg/injection, schedule: Q04DX003 (ip), vehicle: saline with Tween-80", "result": "154 % of control"}, {"measurement": "T/C", "setting": "dose: 106.68 mg/kg/injection, schedule: Q01DX009 (ip), vehicle: water", "result": "214 % of control"}, {"measurement": "T/C", "setting": "dose: 120.0 mg/kg/injection, schedule: Q01DX001 (oral), vehicle: water", "result": "114 % of control"}, {"measurement": "T/C", "setting": "dose: 120.0 mg/kg/injection, schedule: Q01DX005 (ip), vehicle: water", "result": "184 % of control"}, {"measurement": "T/C", "setting": "dose: 150.0 mg/kg/injection, schedule: Q01DX009 (ip), vehicle: water", "result": "99 % of control"}, {"measurement": "T/C", "setting": "dose: 160.0 mg/kg/injection, schedule: Q01DX009 (ip), vehicle: water", "result": "231 % of control"}, {"measurement": "T/C", "setting": "dose: 178.0 mg/kg/injection, schedule: Q01DX001 (ip), vehicle: saline with Tween-80", "result": "124 % of control"}, {"measurement": "T/C", "setting": "dose: 200.0 mg/kg/injection, schedule: Q01DX009 (ip), vehicle: saline with Tween-80", "result": "120 % of control and 233 % of control"}, {"measurement": "T/C", "setting": "dose: 200.0 mg/kg/injection, schedule: Q01DX009 (ip), vehicle: saline", "result": "234 % of control and 90 % of control"}, {"measurement": "T/C", "setting": "dose: 200.0 mg/kg/injection, schedule: Q01DX009 (ip), vehicle: water", "result": "180 % of control"}, {"measurement": "T/C", "setting": "dose: 200.0 mg/kg/injection, schedule: Q04DX003 (ip), vehicle: distilled water + Tween-80", "result": "171 % of control"}, {"measurement": "T/C", "setting": "dose: 200.0 mg/kg/injection, schedule: Q04DX003 (ip), vehicle: saline with Tween-80", "result": "186 % of control and 190 % of control"}, {"measurement": "T/C", "setting": "dose: 240.0 mg/kg/injection, schedule: Q01DX001 (oral), vehicle: water", "result": "117 % of control"}, {"measurement": "T/C", "setting": "dose: 240.0 mg/kg/injection, schedule: Q01DX009 (ip), vehicle: water", "result": "87 % of control"}, {"measurement": "T/C", "setting": "dose: 264.0 mg/kg/injection, schedule: Q04DX003 (ip), vehicle: saline with Tween-80", "result": "227 % of control"}, {"measurement": "T/C", "setting": "dose: 400.0 mg/kg/injection, schedule: Q01DX001 (ip), vehicle: saline with Tween-80", "result": "159 % of control"}]}, {"molecule": "CCN(CC)Cc1c(C)[nH]c2cc(Cl)ccc2c1=O", "values": [{"measurement": "T/C", "setting": "dose: 100.0 mg/kg/injection, schedule: Q01DX001 (ip), vehicle: saline with Tween-80", "result": "88 % of control"}]}, {"molecule": "N=C(N)n1cc(/C=N/N=C(N)N)cn1", "values": [{"measurement": "T/C", "setting": "dose: 60.0 mg/kg/injection, schedule: Q01DX005 (ip), vehicle: saline with Tween-80", "result": "102 % of control"}, {"measurement": "T/C", "setting": "dose: 120.0 mg/kg/injection, schedule: Q01DX005 (ip), vehicle: saline with Tween-80", "result": "103 % of control"}]}]}
